Measured values: PubChem BioAssay (NCI)
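Briefly, cells in 96-well plates were exposed to five compound concentrations for 48 h, and endpoints were estimated by linear interpolation. GI50: concentration for 50% inhibition of growth. TGI is the concentration that stops growth completely.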 Where a SMILES comes first, the peptide text is derived from it. Bridges are numbered along the chain shown (N, C = ends). [ ]: non-standard residue; d: D form. ξ: configuration not given here. ξThr(3R) = C[C@@H](O)C(N)C(=O)O; S5 = C=CCCC[C@](C)(N)C(=O)O

Assays:
Assay in all cases: DTP human tumour cell line panel, 48 h
[1] = system: OVCAR-4 ovarian
[2] = system: BT-549 breast
[3] = system: RPMI-8226 leukemia
[4] = system: NCI/ADR-RES ovarian
[5] = system: A498 renal
[6] = system: SW-620 colon
[7] = system: M14 melanoma
[8] = system: MDA-MB-231 breast
[9] = system: MDA-MB-435
[10] = system: SNB-75 CNS

Row | SMILES | GI50 [1] | TGI [1] | GI50 [2] | TGI [2] | GI50 [3] | TGI [3] | GI50 [4] | TGI [4] | GI50 [5] | TGI [5] | GI50 [6] | TGI [6] | GI50 [7] | TGI [7] | GI50 [8] | TGI [8] | GI50 [9] | TGI [9] | GI50 [10] | TGI [10]
1 | CC(=O)N[C@H](C(=O)N[C@@H](CCCNC(=N)N)C(=O)N[C@@H](CCCCN)C(=O)N[C@@H](CCCNC(=N)N)C(=O)NC(C(=O)N[C@@H](CC(C)C)C(=O)N[C@@H](CCCNC(=N)N)C(=O)N[C@@]1(C)CCC/C=C\CCC[C@@](C)(C(=O)N[C@@H](CCCNC(=N)N)C(=O)N[C@@H](CCC(=O)O)C(=O)N[C@@H](CC(C)C)C(=O)N[C@H](C(=O)N[C@@H](CCC(=O)O)C(N)=O)C(C)C)NC(=O)[C@H](CCC(N)=O)NC(=O)[C@H](CC(C)C)NC(=O)[C@H](CC(C)C)NC1=O)[C@@H](C)O)C(C)C (stereo partly drawn) (Ac-VRKR[ξThr(3R)]LR[S5]LLQ[S5]RELVE-NH2; staple (Z) 8-12) | 9.5 µM | 20 µM | 3.45 µM | 11.1 µM | 8.77 µM | 18.9 µM | 7.9 µM | 16.7 µM | 8.69 µM | 18.4 µM | 8.29 µM | 16.2 µM | 4.27 µM | 11.5 µM | 8.24 µM | 17.1 µM | 1.94 µM | 7.56 µM | 3.8 µM | 10.8 µM
2 | O=Cc1c(-c2ccccc2)[nH]c2ccccc2c1=O | – | > 100 µM | – | > 100 µM | – | 85.6 µM | – | > 100 µM | – | > 100 µM | – | > 100 µM | – | > 100 µM | – | > 100 µM | – | 88.1 µM | – | 86.4 µM
3 | C[C@@H](NC(=O)c1ncnc(N)c1Cl)c1ncc(C(=O)Nc2cc(C(F)(F)F)c(Cl)cn2)s1 | 20.7 µM | 73.3 µM | 22.1 µM | 81.2 µM | 15.2 µM | 49 µM | 24.5 µM | 82.5 µM | 7.94 µM | 24.7 µM | 11 µM | > 75.5 µM | 0.497 µM | 13.6 µM | 5.37 µM | 41.5 µM | 2.27 µM | 34.3 µM | 23.1 µM | 94.4 µM
4 | O=S(=O)(c1ccccc1)N1CN2CN(C1)CN(S(=O)(=O)c1ccccc1)C2 | – | > 100 µM | – | > 100 µM | – | > 100 µM | – | > 100 µM | – | > 100 µM | – | > 100 µM | – | > 100 µM | – | > 100 µM | – | > 100 µM | – | 66.1 µM
5 | Cc1ccc(/C=C/c2c(C(=O)/C=C/c3ccc(Cl)cc3)c(C)nc3ccccc23)cc1 | 3.97 µM | 17.9 µM | 1.4 µM | 2.93 µM | 2.13 µM | 5.95 µM | 1.99 µM | 4.45 µM | 1.77 µM | 3.28 µM | 1.9 µM | 5.11 µM | 1.64 µM | 3.4 µM | 1.77 µM | 3.68 µM | 2.05 µM | 4.22 µM | 1.51 µM | 3.24 µM
6 | C(=Nc1cnc2ccccc2c1)c1ccc2ccccc2n1 | – | > 100 µM | – | > 100 µM | – | > 100 µM | – | > 100 µM | – | > 100 µM | – | > 100 µM | – | > 100 µM | – | > 100 µM | – | > 100 µM | – | > 100 µM
7 | O=C(O)c1c(Cl)c(Cl)c(Cl)c(Cl)c1C(=O)Nc1ccc2cn[nH]c2c1 | – | > 100 µM | – | > 100 µM | – | > 100 µM | – | > 100 µM | – | > 100 µM | – | > 100 µM | – | > 100 µM | – | > 100 µM | – | > 100 µM | – | > 100 µM
8 | O=C(Nc1ccccc1C(F)(F)F)c1ccc(NC2=C(Cl)C(=O)N(Cc3ccccc3)C2=O)cc1 | 33.5 µM | > 100 µM | 24 µM | 58.3 µM | 8.4 µM | > 100 µM | 39.3 µM | > 100 µM | 38.3 µM | 89.4 µM | > 100 µM | > 100 µM | 51.6 µM | > 100 µM | 12.8 µM | 38.4 µM | 51.5 µM | > 100 µM | 36.5 µM | > 100 µM
9 | Cc1nc(-c2cnc(NC(C)C)n(C)c2=O)ccc1Oc1ccnc(-c2cnn(C)c2)c1 | 7.28 µM | > 100 µM | 12.7 µM | 70 µM | 8.49 µM | 81.7 µM | 8.35 µM | > 100 µM | 4.8 µM | 38.6 µM | 5.49 µM | > 100 µM | 5.72 µM | 33.4 µM | 20.5 µM | > 100 µM | 2.98 µM | 18.2 µM | 12.3 µM | 47.7 µM
10 | O=c1ccc(=O)n(-c2ccccc2)[nH]1 | – | > 100 µM | – | > 100 µM | – | > 100 µM | – | > 100 µM | – | > 100 µM | – | > 100 µM | – | > 100 µM | – | > 100 µM | – | > 100 µM | – | > 100 µM
11 | COc1ccc2nc(-c3ccccc3)cc(Nc3cccc(C(C)=O)c3)c2c1 | 7.05 µM | 62.8 µM | 18.2 µM | 40.3 µM | 33.2 µM | > 100 µM | 4.89 µM | 34.1 µM | 2.42 µM | 15 µM | 2.7 µM | 15.1 µM | 5.11 µM | 20.2 µM | 9.65 µM | 28.3 µM | 4.51 µM | 17.1 µM | 12.2 µM | 38.4 µM
12 | O=C1c2cccnc2C(=O)c2c1c(C(=O)NCCn1ccnc1)c1ccccn21 | 1.62 µM | 3.95 µM | 5.14 µM | 16.9 µM | 5.95 µM | 88.4 µM | 27.4 µM | > 100 µM | 5.43 µM | 17.6 µM | 2.55 µM | 11.1 µM | 1.91 µM | 6.13 µM | 3.46 µM | > 100 µM | 1.71 µM | 3.13 µM | 3.24 µM | 16.8 µM
13 | O=C(COc1ccc(OCC(=O)N2C(=O)CN(c3ccccc3)C2=S)cc1)N1C(=O)CN(c2ccccc2)C1=S | > 25 µM | > 100 µM | – | > 100 µM | > 25 µM | > 100 µM | > 25 µM | > 100 µM | > 25 µM | > 100 µM | > 25 µM | > 100 µM | > 25 µM | > 100 µM | > 25 µM | > 100 µM | > 25 µM | > 100 µM | 33.7 µM | > 100 µM
14 | CN(C)Cc1ccc(C(C)(C)C)cc1-c1cc(C(C)(C)C)ccc1CN(C)C | – | > 100 µM | – | > 100 µM | – | > 100 µM | – | > 100 µM | – | > 100 µM | – | > 100 µM | – | 41.6 µM | – | > 100 µM | – | > 100 µM | – | > 100 µM
